Data taken from patent publication US4119730A, “Treating muscle spasms” (Chimicasa GmbH, priority 1976, dated 1978).
In brackets after ≈: the same amount, converted by molar mass. Where two headings read alike, the source gives them in different places. Blank lines part the entries; values can stand above or below the compound they belong to.

Key:
[1] = system: isolated guinea pig intestine; test: inhibition of histamine-induced contraction of isolated guinea pig intestine; conditions: Cavia porcellus, 2 min, read-out: ED50 (concentration of agent per liter of bath liquid which inhibits the contraction of the intestine by 50%)
Experimental: The antispasmodic effect of the compounds (I) could not be expected from a study of their structure alone. Their effectiveness has been measured in a pharmacological standard test as follows:
Several 3 cm-long pieces of an isolated guinea pig intestine were stretched under a load of 0.5 g in separate baths. In all baths, the bath liquid was Tyrode's solution, warmed to 32° C. A first contraction of the pieces of intestine was produced in each case by adding 0.5 mg (milligram) of histamine chloride per liter of bath liquid. he reduction in length caused by the first contraction was measured 2 min (minutes) after adding the histamine chloride.
The bath liquids were then renewed and, after relaxation of the first contraction, the agent under test, dissolved in propylene glycol, was added to the bath liquids and 2 min later 0.5 mg. of histamine chloride per liter of bath liquid was again added. A second contraction was thereby produced and the reduction in length caused by this was measured 2 min after the addition of the histamine chloride. […] The concentrations (ED50) of agent per liter of bath liquid, which inhibit the contraction of the intestine by 50% were determined (ED50 = effective dose to inhibit for 50%).

bladder = test: cystometric measuring of the damping of the increase of the bladder tonus caused by a spasmogenic agent (carbachol); format: in vivo, human
Experimental: The effectiveness test is performed by cystometric measuring of the damping of the increase of the bladder tonus caused by the antispasmodic agent after intravesical administration of a spasmogenic agent as follows:
The bladder capacity (BC) of several human subjects with indwelling permanent catheters is measured by filling the bladders with water warmed to 37° C. The maximum micturition pressure (MM) in the case of the filled bladder is measured. The bladder is then emptied and filled again with warm, clean water to half the capacity measured previously (1/2 BC) and the pressure P1 in the case of the half-filled bladder is measured. The bladder is again emptied and filled again to half its capacity with a solution 1. […] The pressure P2 for half its capacity is measured. […] 30 minutes thereafter the emptied bladder is filled with water, warmed to 37° C. to half its capacity and the pressure P3 is measured. The bladder is subsequently emptied and filled to half its capacity with the solution 1 and the pressure P4 is measured. Fifteen minutes later, the bladder is emptied again and filled to half its capacity with water, warmed to 37° C. and the pressure P5 is measured. Directly thereafter, the bladder is emptied and filled to half its capacity with solution 1 and the pressure P6 is measured. […]

[2] = cited from earlier work
[3] = 0.5 mg histamine chloride per liter, Tyrode's solution, 32° C.

Compound: CC=Cc1ccc(OC(C)=O)c(OC)c1 [2-Methoxy-4-propenylphenyl acetate]
- IC50 [1]: 52 µg/mL

Compound: C=CCc1ccc(OC(=O)c2ccccc2)c(OC)c1 [4-Allyl-2-methoxyphenyl benzoate]
- IC50 [1, 3]: 160 µg/mL (≈ 596 µM)

Compound: COc1ccc(Cc2nccc3cc(OC)c(OC)cc23)cc1OC [Papaverine]
- non-specific actions ([2]; in vivo): observed
- activity in animal experiments ([2]; prior art): very active in animal experiments
- activity when used on humans ([2]; prior art): its activity is insufficient
- dosage required in severe spasms relative to lethal dose ([2]; prior art, lethal dose from animal experiments): very high dosages, near the lethal dose

Compound: CN1[C@@H]2CC[C@H]1C[C@@H](OC(=O)C(CO)c1ccccc1)C2 (stereo partly drawn) [atropine]
- drug dependence ([2]; especially with long term treatment, prior art): drug dependence can occur
- side effects associated with use ([2]; known antispasmodic, prior art): inducement of sleepiness, mental confusion and a state of inattentiveness

Further lines, with some results ahead:

- IC50 [1]: 11.8 µg/mL (≈ 66.2 µM)
Compound: C=CCc1ccc(OC)c(OC)c1 [1-Allyl-3,4-dimethoxybenzene]
- effectiveness on humans (bladder; rectal): effectiveness

- IC50 [1, 3]: 27 µg/mL (≈ 151 µM)
Compound: CC=Cc1ccc(OC)c(OC)c1 [3,4-Dimethoxy-propenylbenzol]

- IC50 [1, 3]: 25 µg/mL
Compound: C=CCc1ccc(OC(C)=O)c(OC)c1 [4-Allyl-2-methoxyphenyl acetate]
- effectiveness on humans (bladder; rectal or oral): effectiveness

- IC50 [1, 3]: 14.5 µg/mL (≈ 61.9 µM)
Compound: C=CCc1ccc(OC(=O)CCC)c(OC)c1 [4-Allyl-2-methoxyphenyl butanoate]

- IC50 [1, 3]: 44.6 µg/mL (≈ 180 µM)
Compound: C=CCc1ccc(OC(=O)CCCC)c(OC)c1 [4-Allyl-2-methoxyphenyl valerate]
